Experimental findings from patent publication US20230103791A1 (GLAXOSMITHKLINE INTELLECTUAL PROPERTY DEVELOPMENT LIMITED, priority 2019, published 2023) are described below.

The structures appear in SMILES notation.

T1 sequence (Q9Y5Y9 whole entry): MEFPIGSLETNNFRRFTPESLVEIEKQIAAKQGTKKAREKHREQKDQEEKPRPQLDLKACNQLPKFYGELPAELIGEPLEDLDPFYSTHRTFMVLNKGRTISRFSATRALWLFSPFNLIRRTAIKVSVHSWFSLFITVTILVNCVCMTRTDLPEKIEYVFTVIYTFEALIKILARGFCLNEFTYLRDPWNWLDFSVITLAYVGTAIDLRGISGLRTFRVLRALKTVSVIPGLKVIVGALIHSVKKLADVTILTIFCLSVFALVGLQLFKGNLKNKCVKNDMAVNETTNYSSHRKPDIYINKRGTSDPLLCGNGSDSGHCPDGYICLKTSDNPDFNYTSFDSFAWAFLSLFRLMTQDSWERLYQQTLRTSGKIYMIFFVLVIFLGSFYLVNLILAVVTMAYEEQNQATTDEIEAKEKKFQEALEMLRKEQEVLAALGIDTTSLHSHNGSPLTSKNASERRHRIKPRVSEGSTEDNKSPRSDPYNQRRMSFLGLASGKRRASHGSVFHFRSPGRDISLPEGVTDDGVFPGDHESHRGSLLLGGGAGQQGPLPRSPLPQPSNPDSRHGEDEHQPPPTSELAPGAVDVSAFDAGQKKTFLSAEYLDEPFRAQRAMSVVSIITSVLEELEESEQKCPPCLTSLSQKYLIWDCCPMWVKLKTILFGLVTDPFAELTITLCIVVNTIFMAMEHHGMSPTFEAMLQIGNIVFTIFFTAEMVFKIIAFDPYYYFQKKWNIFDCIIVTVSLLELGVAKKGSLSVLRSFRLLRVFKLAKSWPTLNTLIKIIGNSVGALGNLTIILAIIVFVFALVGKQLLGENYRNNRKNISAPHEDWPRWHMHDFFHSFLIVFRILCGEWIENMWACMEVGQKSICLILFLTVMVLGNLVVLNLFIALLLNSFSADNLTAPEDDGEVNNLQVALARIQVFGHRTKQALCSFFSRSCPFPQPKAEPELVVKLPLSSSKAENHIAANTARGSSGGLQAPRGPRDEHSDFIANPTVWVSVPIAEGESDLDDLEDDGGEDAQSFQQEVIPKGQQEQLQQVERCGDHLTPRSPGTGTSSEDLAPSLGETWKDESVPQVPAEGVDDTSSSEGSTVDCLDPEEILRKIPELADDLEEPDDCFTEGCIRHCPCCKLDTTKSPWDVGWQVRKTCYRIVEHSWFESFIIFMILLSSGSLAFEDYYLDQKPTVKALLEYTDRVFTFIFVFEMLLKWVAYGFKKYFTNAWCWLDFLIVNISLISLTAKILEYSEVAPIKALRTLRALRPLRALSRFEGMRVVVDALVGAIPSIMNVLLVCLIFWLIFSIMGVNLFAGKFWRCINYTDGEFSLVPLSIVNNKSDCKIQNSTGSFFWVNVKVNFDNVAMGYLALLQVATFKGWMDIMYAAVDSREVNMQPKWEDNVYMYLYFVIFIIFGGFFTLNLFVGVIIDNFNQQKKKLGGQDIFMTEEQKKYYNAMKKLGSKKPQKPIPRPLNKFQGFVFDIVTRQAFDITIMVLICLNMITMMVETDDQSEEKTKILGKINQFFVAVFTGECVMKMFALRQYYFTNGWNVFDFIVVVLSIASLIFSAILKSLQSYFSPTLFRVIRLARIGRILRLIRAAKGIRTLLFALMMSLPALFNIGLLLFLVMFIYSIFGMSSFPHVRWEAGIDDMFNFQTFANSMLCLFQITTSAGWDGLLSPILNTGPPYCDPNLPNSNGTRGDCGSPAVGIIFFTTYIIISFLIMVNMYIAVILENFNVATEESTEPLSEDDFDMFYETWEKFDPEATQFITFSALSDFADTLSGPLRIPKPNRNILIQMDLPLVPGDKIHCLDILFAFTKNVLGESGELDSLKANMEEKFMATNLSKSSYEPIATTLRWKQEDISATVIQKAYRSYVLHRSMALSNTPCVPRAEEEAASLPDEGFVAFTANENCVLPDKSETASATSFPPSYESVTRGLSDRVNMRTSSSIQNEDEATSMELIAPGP
T1 sequence (Q07699 19-218 partner): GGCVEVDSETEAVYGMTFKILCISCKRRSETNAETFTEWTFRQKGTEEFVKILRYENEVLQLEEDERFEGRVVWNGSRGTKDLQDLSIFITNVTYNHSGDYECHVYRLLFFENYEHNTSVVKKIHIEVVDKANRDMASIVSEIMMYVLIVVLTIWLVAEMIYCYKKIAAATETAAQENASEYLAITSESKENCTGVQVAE

This assay concerns the target T1, human Nav1.8 (Homo sapiens, UniProt Q9Y5Y9).
T1 construct: expressed in transfected cells; host or cells: HEK293 (HEK293-Nav1.8)
Nature of the assay: Nav1.8 sodium channels assay, QPatch 48 HTX electrophysiology in HEK293-Nav1.8 cells. The class given is cell-based. The note with it: at least one set of experimental runs; read-out: average pIC50 value against Nav1.8 (converted). The protocol:
Human embryonic kidney […] cells (HEK293) expressing human Nav1.8, human Navβ1 and human TREK1 (HEK293-Nav1.8) were grown at 37° C., 5% CO2 in 150 cm^2 flasks. HEK293-Nav1.8 were passaged every 2-3 days when confluency reached 80-90% in to T175 cell culture flasks.
Pharmacological assessment of the invention was performed using HEK293-Nav1.8 in combination with an assay developed on the QPatch 48 HTX electrophysiological system. HEK293-Nav1.8 were prepared on the day of use by removing culture media, washing in DPBS, adding Accutase (2 ml to cover the surface, aspirate 1 ml then 1.5 min at 37° C.) followed by addition of CHO-SFM II to stop the enzyme digestion and in order to obtain a suspension of 3×10^6 cell/mL.
The invention was prepared in an extracellular solution of the following composition (in mM) NaCl 145, KCl 4, CaCl2 2, MgCl 2, HEPES 1, Glucose 10, pH 7.4 with NaOH Osmolality 300 mOsM/L. The intracellular solution was used of the following composition (in mM) CsF 115, CsCl 20, NaCl 5, EGTA 10, HEPES 10, Sucrose 20, pH 7.2 with CsOH Osmolality 310 mOsm/L.
Utilizing the voltage-clamp mode in the QPatch 48 HTX system a half inactivation state voltage protocol (V1/2) was used to determine pharmacological activity of the invention at Nav1.8 ion channels. A V1/2 protocol was utilized with the following voltage steps: a holding voltage of −100 mV was established followed by a 20 ms voltage step to 0 mV (P1), followed by an inactivating voltage step at −46 mV for 8 seconds, followed by a step to −100 mV for 20 ms, before a 20 ms step to 0 mV (P2) before returning to the holding voltage of −100 mV. This voltage protocol was repeated at a frequency of 0.07 Hz., current magnitude was quantified at the P2 step throughout the recording. Inhibition of the measured current amplitude with the invention was analyzed by fitting a 6-8 point dose-response curve allowing determination of the fifty percent inhibition concentration (IC50). Within the QPatch HTX software, P2 current was normalized according to measurements made at baseline after compound and after positive reference compound and fit to the following equation: […]
To assess current run-down over the course of the experiment vehicle-only wells were utilized and the normalized current with vehicle-only (n.IVEH) was determined. To correct the compound response for run-down, the currents were correct according the following formula: […]
Compounds of the invention are tested for activity against Nav1. 8 sodium channels in the above assay.
As to `Cc1cc(F)ccc1N1CN(c2cccc(S(C)(=O)=O)c2)C(=O)c2ccc(C(F)(F)F)cc21` [Example 14, 1-(4-fluoro-2-methylphenyl)-3-(3-(methylsulfonyl)phen-yl)-7-(trifluoromethyl)-2,3-dihydroquinazolin-4(1H)-one], the IC50 is 794 to 7940 nM.
For `Cc1cc(F)ccc1N1CN(C2CCS(=O)(=O)C2)C(=O)c2cc(C(F)(F)F)ccc21` (centres unmarked) [Example 15, 3-(1,1-dioxidotetrahydro-thiophen-3-yl)-1-(4-fluoro-2-methylphenyl)-6-(trifluoromethyl)-2,3-dihydroquinazolin-4(1H)-one] the value was 794 to 7940 nM; for `Cc1cnccc1N1CN(c2ccc(F)cc2C)c2ccc(C(F)(F)F)cc2C1=O` [Example 16, 1-(4-fluoro-2-methylphenyl)-3-(3-methylpyridin-4-yl)-6-(trifluoromethyl)-2,3-dihydroquinazolin-4(1H)-one], 126 to 631 nM; for `Cc1cc(F)ccc1N1CN(C2CCS(=O)(=O)CC2)C(=O)c2ccc(C(F)(F)F)cc21` [Example 17, 3-(1,1-dioxidotetrahydro-2H-thiopyran-4-yl)-1-(4-fluoro-2-methylphenyl)-7-(trifluoromethyl)-2,3-dihydroquinazolin-4(1H)-one], 794 to 7940 nM.
The result for `Cc1cc(F)ccc1N1CN(c2cn[nH]c2)C(=O)c2cc(C(F)(F)F)ccc21` [Example 18, 1-(4-fluoro-2-methylphenyl)-3-(1H-pyrazol-4-yl)-6-(trifluoromethyl)-2,3-dihydroquinazolin-4(1H)-one] reads 794 to 7940 nM; that for `COc1ccc(N2CN(c3ccc(F)cc3C)c3ccc(C(F)(F)F)cc3C2=O)c(C)n1` [Example 19, 1-(4-fluoro-2-methylphenyl)-3-(6-methoxy-2-methylpyridin-3-yl)-6-(trifluoromethyl)-2,3-dihydroquinazolin-4(1H)-one], 794 to 7940 nM.
For `Cc1cc(F)ccc1N1CN(c2n[nH]c(=O)cc2C)C(=O)c2ccc(C(F)(F)F)cc21` [Example 20, 1-(4-fluoro-2-methylphenyl)-3-(4-methyl-6-oxo-1,6-dihydropyridazin-3-yl)-7-(trifluoromethyl)-2,3-dihydroquinazolin-4(1H)-one] the value was 794 to 7940 nM.
For the compound `Cc1cnccc1N1CN(c2ccc(OC(F)(F)F)cc2C)c2ccc(C(F)(F)F)cc2C1=O` [Example 21, 1-(2-methyl-4-(trifluoromethoxy)phenyl)-3-(3-methylpyridin-4-yl)-6-(trifluoromethyl)-2,3-dihydroquinazolin-4(1H)-one], the IC50 was 126 to 631 nM.
On to `Cc1cc(Cl)ncc1N1CN(c2ccc(F)cc2C)c2ccc(C(F)(F)F)cc2C1=O` [Example 22, 3-(6-chloro-4-methylpyridin-3-yl)-1-(4-fluoro-2-methylphenyl)-6-(trifluoromethyl)-2,3-dihydroquinazolin-4(1H)-one], for which the IC50 is 794 to 7940 nM.
The result for `Cc1cnccc1N1CN(c2ccc(F)cc2C)c2cc(C(F)F)c(Cl)cc2C1=O` [Example 23, 6-chloro-7-(difluoromethyl)-1-(4-fluoro-2-methylphenyl)-3-(3-methylpyridin-4-yl)-2,3-dihydroquinazolin-4(1H)-one] reads 126 to 631 nM; that for `Cc1cc(F)ccc1N1CN(c2c[nH]nc2C)C(=O)c2cc(C(F)(F)F)ccc21` [Example 28, 1-(4-fluoro-2-methylphenyl)-3-(3-methyl-1H-pyrazol-4-yl)-6-(trifluoromethyl)-2,3-dihydroquinazolin-4(1H)-one], 126 to 631 nM.
On to `Cc1cc(F)ccc1N1CN([C@H]2CCC(=O)N[C@@H]2C)C(=O)c2cc(C(F)(F)F)ccc21` [Example 33, 1-(4-fluoro-2-methylphenyl)-3-((2R,3S)-2-methyl-6-oxopiperidin-3-yl)-6-(trifluoromethyl)-2,3-dihydroquinazolin-4(1H)-one], for which the IC50 was at most 100 nM.
`Cc1cc(F)ccc1N1CN(C2CCC(=O)NC2=O)C(=O)c2cc(C(F)(F)F)ccc21` (centres unmarked) [Example 34, 3-(1-(4-fluoro-2-methylphenyl)-4-oxo-6-(trifluoromethyl)-1,4-dihydroquinazolin-3(2H)-yl)piperidine-2,6-dione]: the IC50 is 126 to 631 nM.
Consider `Cc1cc(F)ccc1N1CN(c2ccc(=O)[nH]c2C)C(=O)c2ccc(C(F)(F)F)cc21` [Example 35, 1-(4-Fluoro-2-methylphenyl)-3-(2-methyl-6-oxo-1,6-dihydropyridin-3-yl)-7-(trifluoromethyl)-2,3-dihydroquinazolin-4(1H)-one], for which the IC50 is at most 100 nM.
The result for `Cc1cc(F)ccc1N1CN(c2ccc(=O)[nH]c2)C(=O)c2ccc(C(F)(F)F)cc21` [Example 36, 1-(4-fluoro-2-methylphenyl)-3-(6-oxo-1,6-dihydropyridin-3-yl)-7-(trifluoromethyl)-2,3-dihydroquinazolin-4(1H)-one] reads 126 to 631 nM; that for `O=C1c2ccc(C(F)(F)F)cc2N(C2CCCCC2)CN1c1ccc(=O)[nH]c1` [Example 37, 1-cyclohexyl-3-(6-oxo-1,6-dihydropyridin-3-yl)-7-(trifluoromethyl)-2,3-dihydroquinazolin-4(1H)-one], 794 to 7940 nM.
Take `Cc1cc(F)cc(C)c1N1CN(c2ccc(=O)[nH]c2)C(=O)c2ccc(C(F)(F)F)cc21` [Example 38, 1-(4-fluoro-2,6-dimethylphenyl)-3-(6-oxo-1,6-dihydropyridin-3-yl)-7-(trifluoromethyl)-2,3-dihydroquinazolin-4(1H)-one]: the IC50 was 794 to 7940 nM.
The result for `Cc1cc(F)ccc1N1c2cc(C(F)(F)F)ccc2C(=O)N(c2ccc(=O)[nH]c2)C1C` (centres unmarked) [Example 39, 1-(4-fluoro-2-methylphenyl)-2-methyl-3-(6-oxo-1,6-dihydropyridin-3-yl)-7-(trifluoromethyl)-2,3-dihydroquinazolin-4(1H)-one] reads 794 to 7940 nM.
`O=C1c2ccc(C(F)(F)F)cc2N(c2ccc(F)cc2Cl)CN1c1ccc(=O)[nH]c1` [Example 40, 1-(2-chloro-4-fluorophenyl)-3-(6-oxo-1,6-dihydropyridin-3-yl)-7-(trifluoromethyl)-2,3-dihydroquinazolin-4(1H)-one]: the IC50 was 126 to 631 nM.
The result for `O=C1c2ccc(C(F)(F)F)cc2N(c2ccc(F)cc2OCCO)CN1c1ccc(=O)[nH]c1` [Example 41, 1-(4-fluoro-2-(2-hydroxyeth-oxy)phenyl)-3-(6-oxo-1,6-dihydropyridin-3-yl)-7-(trifluoromethyl)-2,3-dihydroquinazolin-4(1H)-one] reads 794 to 7940 nM; that for `O=C1c2ccc(C(F)(F)F)cc2N(c2ccc(F)cc2F)CN1c1ccc(=O)[nH]c1` [Example 42, 1-(2,4-difluorophenyl)-3-(6-oxo-1,6-dihydropyridin-3-yl)-7-(trifluoromethyl)-2,3-dihydroquinazolin-4(1H)-one], 794 to 7940 nM.
As to `CCc1cc(F)ccc1N1CN(c2ccc(=O)[nH]c2)C(=O)c2ccc(C(F)(F)F)cc21` [Example 43, 1-(2-ethyl-4-fluorophenyl)-3-(6-oxo-1,6-dihydropyridin-3-yl)-7-(trifluoromethyl)-2,3-dihydroquinazolin-4(1H)-one], the IC50 is 126 to 631 nM.
`Cc1cc(F)ccc1N1CN(c2ccc(=O)[nH]c2)C(=O)c2ccc(C(F)(F)F)c(Cl)c21` [Example 44, 8-chloro-1-(4-fluoro-2-methylphenyl)-3-(6-oxo-1,6-dihydropyridin-3-yl)-7-(trifluoromethyl)-2,3-dihydroquinazolin-4(1H)-one]: the IC50 was 794 to 7940 nM.
